Source: patent US11643391B2, “Prodrugs and conjugates of dimethyltryptamine” (priority 2021, dated 2023)

Tests used:
[1] = Stability in SGF with pepsin; assay type: physicochemical
[2] = Stability in SGF without pepsin; assay type: physicochemical
[3] = Stability in Mouse Plasma; assay type: in vitro ADME
physchem = conditions: buffer, pH 6.5
Stability in PBS pH 6.5 = conditions: for half-life: PBS, pH 6.5, T½
[4] = background statement, cited from earlier work
[5] = Table 8, if calculated T½ < 0, T½ reported as 9999 min

SMILES: CC(OC(=O)n1cc(CCN(C)C)c2ccccc21)OC(=O)C(C)(C)C (racemic) [VLS-03-15]
- Peak Area of MRM: 205.0/159.8 (analyte VLS-03-15 Parent) ([1]; 0 min): 6.75E+05
- Peak Area of MRM: 205.0/159.8 (analyte VLS-03-15 Parent) ([1]; 30 min): 7.21E+05
- Peak Area of MRM: 205.0/159.8 (analyte VLS-03-15 Parent) ([1]; 60 min): 7.26E+05
- Peak Area of MRM: 205.0/159.8 (analyte VLS-03-15 Parent) ([1]; 120 min): 7.14E+05
- Peak Area of MRM: 205.0/159.8 (analyte VLS-03-15 Parent) ([1]; 240 min): 7.15E+05
- Remaining Percentage ([1]; Table 8, 0 min): 100.00%
- Remaining Percentage ([1]; Table 8, 30 min): 97.29%
- Remaining Percentage ([1]; Table 8, 60 min): 107.53%
- Remaining Percentage ([1]; Table 8, 120 min): 103.18%
- Remaining Percentage ([1]; Table 8, 240 min): 102.22%
- T½ [1, 5]: 166.65 h
- Peak Area of MRM: 205.0/159.8 (analyte VLS-03-15 Parent) ([1]; VLS-03-15 standard): 6.26E+05
- Peak Area of MRM: 205.0/159.8 (analyte VLS-03-15 Parent) ([2]; 0 min): 7.05E+05
- Peak Area of MRM: 205.0/159.8 (analyte VLS-03-15 Parent) ([2]; 30 min): 6.94E+05
- Peak Area of MRM: 205.0/159.8 (analyte VLS-03-15 Parent) ([2]; 60 min): 6.55E+05
- Peak Area of MRM: 205.0/159.8 (analyte VLS-03-15 Parent) ([2]; 120 min): 7.09E+05
- Peak Area of MRM: 205.0/159.8 (analyte VLS-03-15 Parent) ([2]; 240 min): 6.96E+05
- Remaining Percentage ([2]; Table 8, 0 min): 100.00%
- Remaining Percentage ([2]; Table 8, 30 min): 101.12%
- Remaining Percentage ([2]; Table 8, 60 min): 103.35%
- Remaining Percentage ([2]; Table 8, 120 min): 105.28%
- Remaining Percentage ([2]; Table 8, 240 min): 97.98%
- half-life [2, 5]: 7840 min
- Peak Area of MRM: 205.0/159.8 (analyte VLS-03-15 Parent) ([2]; VLS-03-15 standard): 6.10E+05
- Remaining Percentage ([3]; Table 9, 0 min): 100.00%
- Remaining Percentage ([3]; Table 9, 15 min): 0.00%
- Remaining Percentage ([3]; Table 9, 30 min): 0.00%
- Remaining Percentage ([3]; Table 9, 60 min): 0.00%
- Remaining Percentage ([3]; Table 9, 120 min): 0.00%
- half-life (physchem): 922 min
- Peak Area of MRM: 205.0/159.8 (analyte VLS-03-15 Parent) (Stability in PBS pH 6.5; 0 min): 6.56E+05
- Peak Area of MRM: 205.0/159.8 (analyte VLS-03-15 Parent) (Stability in PBS pH 6.5; 30 min): 6.55E+05
- Peak Area of MRM: 205.0/159.8 (analyte VLS-03-15 Parent) (Stability in PBS pH 6.5; 60 min): 6.28E+05
- Peak Area of MRM: 205.0/159.8 (analyte VLS-03-15 Parent) (Stability in PBS pH 6.5; 120 min): 5.86E+05
- Peak Area of MRM: 205.0/159.8 (analyte VLS-03-15 Parent) (Stability in PBS pH 6.5; 240 min): 5.51E+05
- Remaining Percentage (Stability in PBS pH 6.5; Table 8, 0 min): 100.00%
- Remaining Percentage (Stability in PBS pH 6.5; Table 8, 30 min): 96.93%
- Remaining Percentage (Stability in PBS pH 6.5; Table 8, 60 min): 89.82%
- Remaining Percentage (Stability in PBS pH 6.5; Table 8, 120 min): 89.44%
- Remaining Percentage (Stability in PBS pH 6.5; Table 8, 240 min): 82.54%
- Peak Area of MRM: 205.0/159.8 (analyte VLS-03-15 Parent) (Stability in PBS pH 6.5; VLS-03-15 standard): 6.74E+05

SMILES: O=C(O)CCCc1ccc(N(CCCl)CCCl)cc1 [Chlorambucil, reference compound]
- half-life (Stability in PBS pH 6.5; [5]): 47.2 min
- half-life (Stability in PBS pH 6.5; Table 10): 43.2 min
- Remaining Percentage (Stability in PBS pH 6.5; Table 8, 0 min): 100.00%
- Remaining Percentage (Stability in PBS pH 6.5; Table 8, 30 min): 64.51%
- Remaining Percentage (Stability in PBS pH 6.5; Table 8, 60 min): 42.26%
- Remaining Percentage (Stability in PBS pH 6.5; Table 8, 120 min): 16.83%
- Remaining Percentage (Stability in PBS pH 6.5; Table 8, 240 min): 2.99%
- Remaining Percentage (Stability in PBS pH 6.5; Table 10, 0 min): 100.00%
- Remaining Percentage (Stability in PBS pH 6.5; Table 10, 30 min): 61.12%
- Remaining Percentage (Stability in PBS pH 6.5; Table 10, 60 min): 43.17%
- Remaining Percentage (Stability in PBS pH 6.5; Table 10, 120 min): 15.12%
- Remaining Percentage (Stability in PBS pH 6.5; Table 10, 240 min): 2.15%

SMILES: CN(C)CCc1c[nH]c2ccccc12 [DMT, N,N-dimethyltryptamine]
- estimated half-life ([4]; at higher doses): less than fifteen minutes
- oral bioavailability ([4]; converted by monoamine oxidases): poor oral bioavailability

SMILES: CC[C@H]1OC(=O)[C@H](C)[C@@H](O[C@H]2C[C@@](C)(OC)[C@@H](O)[C@H](C)O2)[C@H](C)[C@@H](O[C@@H]2O[C@H](C)C[C@H](N(C)C)[C@H]2O)[C@](C)(O)C[C@@H](C)C(=O)[C@H](C)[C@@H](O)[C@]1(C)O [Erythromycin, reference compound]
- Remaining Percentage ([1]; Table 8, 0 min): 100.00%
- Remaining Percentage ([1]; Table 8, 30 min): 56.55%
- Remaining Percentage ([1]; Table 8, 60 min): 37.33%
- Remaining Percentage ([1]; Table 8, 120 min): 14.06%
- Remaining Percentage ([1]; Table 8, 240 min): 2.14%
- half-life [1, 5]: 43.6 min
- Remaining Percentage ([1]; Table 10, 0 min): 100.00%
- Remaining Percentage ([1]; Table 10, 30 min): 56.55%
- Remaining Percentage ([1]; Table 10, 60 min): 34.88%
- Remaining Percentage ([1]; Table 10, 120 min): 11.22%
- Remaining Percentage ([1]; Table 10, 240 min): 1.60%
- half-life ([1]; Table 10, read-out: T½): 40.3 min
- Remaining Percentage ([2]; Table 8, 0 min): 100.00%
- Remaining Percentage ([2]; Table 8, 30 min): 52.67%
- Remaining Percentage ([2]; Table 8, 60 min): 28.46%
- Remaining Percentage ([2]; Table 8, 120 min): 8.27%
- Remaining Percentage ([2]; Table 8, 240 min): 1.47%
- half-life [2, 5]: 39.5 min
- Remaining Percentage ([2]; Table 10, 0 min): 100.00%
- Remaining Percentage ([2]; Table 10, 30 min): 59.45%
- Remaining Percentage ([2]; Table 10, 60 min): 33.60%
- Remaining Percentage ([2]; Table 10, 120 min): 10.27%
- Remaining Percentage ([2]; Table 10, 240 min): 1.20%
- half-life ([2]; Table 10, read-out: T½): 37.4 min
